Here are results for nine compounds from patent US20230227466A1, “SUBSTITUTED THIENOPYRIMIDINES THAT INTERACT WITH THE RAS SUPERFAMILY FOR THE TREATMENT OF CANCERS, INFLAMMATORY DISEASES, RASOPATHIES, AND FIBROTIC DISEASE” (SHY Therapeutics, LLC, priority 2020, published 2023).

Experiment [1] has as its target Rho-A (Homo sapiens, UniProt P61586). Nature of the experiment: Ras GTP binding domain inhibition assay (labeled-GTP competition, cell-free). Details: made in house. The settings on record: without SOS, read-out: Rho-A: % inh. Put shortly:
(§1)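 Labeled-GTP competition read out as bound Cy3/Cy5-GTP fluorescence after washes, with 100 nM tracer for 45 min at RT. Before tracer, compounds at 20 μM, or a dilution series for IC50, sat 3 h at RT on the Ni-immobilized His-tagged GTPase. Sos GEF (10-30 μg/mL) was optionally present for the last hour.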

Experiment [2] deals with KRas wild type (Homo sapiens, UniProt P01116). Described as above. Details: made in house. Put shortly: as §1
Experiment [3] deals with Rac-1 (Homo sapiens, UniProt P63000). The experiment is described as above. Details: made in house. The settings on record: without SOS, read-out: Rac-1: % inh. The procedure, abridged: as §1
Experiment [4] deals with T1, KRas G12C mutant (Homo sapiens, UniProt P01116, G12C).
T1 construct: made in house
The experiment is described as above. The procedure, abridged:
as §1

Experiment [5] addresses T2, KRas G12D mutant (Homo sapiens, UniProt P01116, G12D).
T2 construct: made in house
Described as above. Put shortly:
as §1

In experiment [6] the target is T3, KRas Q61H mutant (Homo sapiens, UniProt P01116, Q61H).
T3 construct: made in house
The description is as above. The note with it: at 20 μM. Put shortly:
as §1

Experiment [7] concerns Akt phosphorylation in Panc-1 cells. Nature of the experiment: Western AKT cell-based phosphorylation assay. The note with it: at 10 μM, values in brackets < > are activation %, not inhibition. Details: species or system human. Put shortly:
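Panc-1 cells starved overnight in 0.5% FBS, exposed to compound at 10 μM (0.3% DMSO) for 6 h at 37° C, then stimulated with 1.5 ng/ml EGF for 15 min. Lysates probed by western blot with anti-phospho-Akt (Ser473), equal protein loading checked by Ponceau S.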

Where [8] appears, read: with SOS, read-out: KRas wild type + SOS: % inh.
[9] abbreviates: without SOS, read-out: KRas wild type: % inh.
[10] abbreviates: with SOS, read-out: KRas G12C mutant + SOS: % inh.
[11] abbreviates: without SOS, read-out: KRas G12C mutant: % inh.
The mark [12] stands for this setting: with SOS, read-out: KRas G12D mutant + SOS: % inh.
[13] abbreviates: without SOS, read-out: KRas G12D mutant: % inh.
The mark [14] stands for this setting: with SOS, read-out: KRas Q61H mutant + SOS: % inh.
The mark [15] stands for this setting: without SOS, read-out: KRas Q61H mutant: % inh.

Read-outs that look alike come from different tables or passages of the source.

Turning to `COc1cccc(Nc2nc(-c3nccn3C)nc3sc(-c4ccn(C(C)C)n4)c(C)c23)n1.Cl` [Compound 65, 6-(1-Isopropyl-1H-pyrazol-3-yl)-N-(6-methoxypyridin-2-yl)-5-methyl-2-(1-methyl-1H-imidazol-2-yl)thieno[2,3-d]pyrimidin-4-amine hydrochloride salt], the inhibition at 20 µM is 51 to 75% in experiment [1]; 51 to 75% in experiment [2] (setting [8]); 26 to 50% in experiment [2] (setting [9]); 26 to 50% in experiment [3]; 76 to 100% in experiment [4] (setting [10]); 26 to 50% in experiment [4] (setting [11]). Further, the inhibition at 20 µM was 51 to 75% in experiment [5] (setting [12]), 26 to 50% in experiment [5] (setting [13]), 51 to 75% in experiment [6] (setting [14]) and 26 to 50% in experiment [6] (setting [15]). Also, in experiment [7], the “% inh of AKT phosphorylation in PANC-1” value is reported as “B (26-50% inhibition)”.
On to `COc1cc(Nc2nc(-c3nccn3C)nc3sc(-c4ccn(C(C)C)n4)c(C)c23)ncn1` [Compound 66, 6-(1-Isopropyl-1H-pyrazol-3-yl)-N-(6-methoxypyrimidin-4-yl)-5-methyl-2-(1-methyl-1H-imidazol-2-yl)thieno[2,3-d]pyrimidin-4-amine], for which the inhibition at 20 µM was 76 to 100% in experiment [1]; 51 to 75% in experiment [2] (setting [8]); 51 to 75% in experiment [2] (setting [9]); 51 to 75% in experiment [3]; 26 to 50% in experiment [4] (setting [10]); 26 to 50% in experiment [4] (setting [11]). Besides, the inhibition at 20 µM in experiment [5] (setting [12]) was 51 to 75%; in experiment [5] (setting [13]), 76 to 100%; in experiment [6] (setting [14]), 26 to 50%; in experiment [6] (setting [15]), 51 to 75%. In experiment [7], the “% inh of AKT phosphorylation in PANC-1” value is “B (26-50% inhibition)”.
As to `COc1cc(Nc2nc(-c3nccn3C)nc3sc(-c4ccn(C(C)C)n4)c(C)c23)ccn1` [Compound 67, 6-(1-Isopropyl-1H-pyrazol-3-yl)-N-(2-methoxypyridin-4-yl)-5-methyl-2-(1-methyl-1H-imidazol-2-yl)thieno[2,3-d]pyrimidin-4-amine], the inhibition at 20 µM in experiment [1] was in the range of 26 to 50%; in experiment [2] (setting [8]) it was 51 to 75%; in experiment [2] (setting [9]), 26 to 50%; in experiment [3], 1 to 25%; in experiment [4] (setting [10]) it was 51 to 75%; in experiment [4] (setting [11]), 26 to 50%. For the same compound, the inhibition at 20 µM in experiment [5] (setting [12]) is 51 to 75%; in experiment [5] (setting [13]) it was 0%; in experiment [6] (setting [14]), 51 to 75%; in experiment [6] (setting [15]), 51 to 75%. Moreover, the “% inh of AKT phosphorylation in PANC-1” value in experiment [7] is on record as “<A>”.
In the case of `COc1ccnc(Nc2nc(-c3nccn3C)nc3sc(-c4ccn(C(C)C)n4)c(C)c23)n1` [Compound 68, 6-(1-Isopropyl-1H-pyrazol-3-yl)-N-(4-methoxypyrimidin-2-yl)-5-methyl-2-(1-methyl-1H-imidazol-2-yl)thieno[2,3-d]pyrimidin-4-amine], the inhibition at 20 µM in experiment [1] was 76 to 100%; in experiment [2] (setting [8]), 76 to 100%; in experiment [2] (setting [9]) it was 76 to 100%; in experiment [3], 76 to 100%; in experiment [4] (setting [10]), 51 to 75%; in experiment [4] (setting [11]) it was 76 to 100%. In addition, the inhibition at 20 µM in experiment [5] (setting [12]) lay in the range of 76 to 100%; in experiment [5] (setting [13]), 76 to 100%; in experiment [6] (setting [14]), 51 to 75%; in experiment [6] (setting [15]), 76 to 100%. Moreover, the “% inh of AKT phosphorylation in PANC-1” value in experiment [7] is on record as “<A>”.
`Cc1c(-c2ccn(C(C)C)n2)sc2nc(-c3ccccn3)nc(N3CCC(COC(C)C)C3)c12` (stereo not drawn) [Compound 72, 4-(3-(Isopropoxymethyl)pyrrolidin-1-yl)-6-(1-isopropyl-1H-pyrazol-3-yl)-5-methyl-2-(pyridin-2-yl)thieno[2,3-d]pyrimidine]: the inhibition at 20 µM is 1 to 25% in experiment [1]; 0% in experiment [2] (setting [8]); 1 to 25% in experiment [2] (setting [9]); 0% in experiment [3]; 1 to 25% in experiment [4] (setting [10]); 0% in experiment [4] (setting [11]). The inhibition at 20 µM in experiment [5] (setting [12]) is 0%; in experiment [5] (setting [13]), 51 to 75%; in experiment [6] (setting [14]) it was 0%; in experiment [6] (setting [15]) it was 0%. In addition, the “% inh of AKT phosphorylation in PANC-1” value in experiment [7] is recorded as “B (26-50% inhibition)”.
`COCCn1cnc(-c2nc(O)c3scc(-c4ccccn4)c3n2)c1` [Compound 78, 2-(1-(2-Methoxyethyl)-1H-imidazol-4-yl)-7-(pyridin-2-yl)thieno[3,2-d]pyrimidin-4-ol]: the inhibition at 20 µM in experiment [1] is 51 to 75%; in experiment [2] (setting [8]) it was 51 to 75%; in experiment [2] (setting [9]), 76 to 100%; in experiment [3], 51 to 75%; in experiment [4] (setting [10]), 51 to 75%; in experiment [4] (setting [11]) it was 51 to 75%. Also, the inhibition at 20 µM in experiment [5] (setting [12]) was in the range of 51 to 75%; in experiment [5] (setting [13]), 76 to 100%; in experiment [6] (setting [14]) it was 51 to 75%; in experiment [6] (setting [15]), 76 to 100%. Moreover, in experiment [7], the “% inh of AKT phosphorylation in PANC-1” value was 0 (0% inhibition).
In the case of `COCCCn1ccnc1-c1nc(O)c2scc(-c3ccccn3)c2n1` [Compound 79, 2-(1-(3-Methoxypropyl)-1H-imidazol-2-yl)-7-(pyridin-2-yl)thieno[3,2-d]pyrimidin-4-ol], the inhibition at 20 µM is 76 to 100% in experiment [1]; 51 to 75% in experiment [2] (setting [8]); 76 to 100% in experiment [2] (setting [9]); 51 to 75% in experiment [3]; 51 to 75% in experiment [4] (setting [10]); 51 to 75% in experiment [4] (setting [11]). The inhibition at 20 µM in experiment [5] (setting [12]), in experiment [5] (setting [13]), in experiment [6] (setting [14]) and in experiment [6] (setting [15]) was 51 to 75% each time. For the same compound, the “% inh of AKT phosphorylation in PANC-1” value in experiment [7] is “<B>”.
Turning to `CCOCCn1ccnc1-c1nc(O)c2scc(-c3ccccn3)c2n1` [Compound 80, 2-(1-(2-Ethoxyethyl)-1H-imidazol-2-yl)-7-(pyridin-2-yl)thieno[3,2-d]pyrimidin-4-ol], the inhibition at 20 µM in experiment [1] was in the range of 51 to 75%; in experiment [2] (setting [8]), 51 to 75%; in experiment [2] (setting [9]) it was 76 to 100%; in experiment [3], 76 to 100%; in experiment [4] (setting [10]) it was 51 to 75%; in experiment [4] (setting [11]), 51 to 75%. Besides, the inhibition at 20 µM in experiment [5] (setting [12]) fell in the range of 76 to 100%; in experiment [5] (setting [13]) it was 76 to 100%; in experiment [6] (setting [14]), 51 to 75%; in experiment [6] (setting [15]), 76 to 100%. In addition, in experiment [7], the “% inh of AKT phosphorylation in PANC-1” value is “<D>”.
With `Oc1nc(-c2nccn2CCOCC(F)(F)F)nc2c(-c3ccccn3)csc12` [Compound 81, 7-(Pyridin-2-yl)-2-(1-(2-(2,2,2-trifluoroethoxy)ethyl)-1H-imidazol-2-yl)thieno[3,2-d]pyrimidin-4-ol], the inhibition at 20 µM in experiment [1] lay in the range of 76 to 100%; in experiment [2] (setting [8]), 76 to 100%; in experiment [2] (setting [9]), 76 to 100%; in experiment [3], 76 to 100%; in experiment [4] (setting [10]), 51 to 75%; in experiment [4] (setting [11]) it was 51 to 75%. Besides, the inhibition at 20 µM lay in the range of 76 to 100% in experiment [5] (setting [12]), 51 to 75% in experiment [5] (setting [13]), 51 to 75% in experiment [6] (setting [14]) and 51 to 75% in experiment [6] (setting [15]). Further, in experiment [7], the “% inh of AKT phosphorylation in PANC-1” value is given as “<D>”.
